Measured values taken from US10421765B2, “Tetrahydropyrido[4,3-d]pyrimidine inhibitors of ATR kinase” (Board of Regents, The University of Texas System, priority 2017, dated 2019).
Like-named read-outs stand apart in the source and are kept apart here.

Assays:
[1] = system: ATR-driven phosphorylation of Chk1 kinase at Serine 345 in HT-29 colorectal adenocarcinoma cells; test: pCHK1 cellular assay (CHK1 p-Ser345 AlphaScreen SureFire); format: cell-based; details: 4-nitroquinoline N-oxide 12 uM, read-out: Cell IC50 (pCHK1 IC50 values)
How it was run: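 HT-29 cells seeded overnight, treated with 1:3 serially diluted compound for 90 minutes at 37° C., then 12 uM (final) 4-nitroquinoline N-oxide for 120 minutes. Lysates read for Chk1 p-Ser345 by AlphaScreen SureFire; IC50 from four-parameter logistic fit, normalized to DMSO (max) and 5 uM ATR inhibitor (min).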

[2] = biological target: ATR/ATRIP complex (Homo sapiens (Human), UniProt Q13535); test: ATR/ATRIP enzymatic assay (Caliper-based); format: biochemical; details: FAM-labeled RAD17 peptide, ATP; read-out: ATR/ATRIP Enzyme IC50
How it was run: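 FLAG-TEV-ATR/His6-ATRIP co-expressed in HEK293 and anti-FLAG purified. Compound preincubated 30 min at 28 °C with enzyme (2x solution 4 nM), then FAM-RAD17 peptide (2x solution 10 uM, 2 μM ATP) added for 6 h at 28 °C; HEPES pH 8, 10 mM MnCl2. Caliper conversion read-out, IC50 from four-parameter fit.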

[3] = Homo sapiens, HT-29, HT-29 cells

Chain of ATR/ATRIP complex (Q13535 whole entry): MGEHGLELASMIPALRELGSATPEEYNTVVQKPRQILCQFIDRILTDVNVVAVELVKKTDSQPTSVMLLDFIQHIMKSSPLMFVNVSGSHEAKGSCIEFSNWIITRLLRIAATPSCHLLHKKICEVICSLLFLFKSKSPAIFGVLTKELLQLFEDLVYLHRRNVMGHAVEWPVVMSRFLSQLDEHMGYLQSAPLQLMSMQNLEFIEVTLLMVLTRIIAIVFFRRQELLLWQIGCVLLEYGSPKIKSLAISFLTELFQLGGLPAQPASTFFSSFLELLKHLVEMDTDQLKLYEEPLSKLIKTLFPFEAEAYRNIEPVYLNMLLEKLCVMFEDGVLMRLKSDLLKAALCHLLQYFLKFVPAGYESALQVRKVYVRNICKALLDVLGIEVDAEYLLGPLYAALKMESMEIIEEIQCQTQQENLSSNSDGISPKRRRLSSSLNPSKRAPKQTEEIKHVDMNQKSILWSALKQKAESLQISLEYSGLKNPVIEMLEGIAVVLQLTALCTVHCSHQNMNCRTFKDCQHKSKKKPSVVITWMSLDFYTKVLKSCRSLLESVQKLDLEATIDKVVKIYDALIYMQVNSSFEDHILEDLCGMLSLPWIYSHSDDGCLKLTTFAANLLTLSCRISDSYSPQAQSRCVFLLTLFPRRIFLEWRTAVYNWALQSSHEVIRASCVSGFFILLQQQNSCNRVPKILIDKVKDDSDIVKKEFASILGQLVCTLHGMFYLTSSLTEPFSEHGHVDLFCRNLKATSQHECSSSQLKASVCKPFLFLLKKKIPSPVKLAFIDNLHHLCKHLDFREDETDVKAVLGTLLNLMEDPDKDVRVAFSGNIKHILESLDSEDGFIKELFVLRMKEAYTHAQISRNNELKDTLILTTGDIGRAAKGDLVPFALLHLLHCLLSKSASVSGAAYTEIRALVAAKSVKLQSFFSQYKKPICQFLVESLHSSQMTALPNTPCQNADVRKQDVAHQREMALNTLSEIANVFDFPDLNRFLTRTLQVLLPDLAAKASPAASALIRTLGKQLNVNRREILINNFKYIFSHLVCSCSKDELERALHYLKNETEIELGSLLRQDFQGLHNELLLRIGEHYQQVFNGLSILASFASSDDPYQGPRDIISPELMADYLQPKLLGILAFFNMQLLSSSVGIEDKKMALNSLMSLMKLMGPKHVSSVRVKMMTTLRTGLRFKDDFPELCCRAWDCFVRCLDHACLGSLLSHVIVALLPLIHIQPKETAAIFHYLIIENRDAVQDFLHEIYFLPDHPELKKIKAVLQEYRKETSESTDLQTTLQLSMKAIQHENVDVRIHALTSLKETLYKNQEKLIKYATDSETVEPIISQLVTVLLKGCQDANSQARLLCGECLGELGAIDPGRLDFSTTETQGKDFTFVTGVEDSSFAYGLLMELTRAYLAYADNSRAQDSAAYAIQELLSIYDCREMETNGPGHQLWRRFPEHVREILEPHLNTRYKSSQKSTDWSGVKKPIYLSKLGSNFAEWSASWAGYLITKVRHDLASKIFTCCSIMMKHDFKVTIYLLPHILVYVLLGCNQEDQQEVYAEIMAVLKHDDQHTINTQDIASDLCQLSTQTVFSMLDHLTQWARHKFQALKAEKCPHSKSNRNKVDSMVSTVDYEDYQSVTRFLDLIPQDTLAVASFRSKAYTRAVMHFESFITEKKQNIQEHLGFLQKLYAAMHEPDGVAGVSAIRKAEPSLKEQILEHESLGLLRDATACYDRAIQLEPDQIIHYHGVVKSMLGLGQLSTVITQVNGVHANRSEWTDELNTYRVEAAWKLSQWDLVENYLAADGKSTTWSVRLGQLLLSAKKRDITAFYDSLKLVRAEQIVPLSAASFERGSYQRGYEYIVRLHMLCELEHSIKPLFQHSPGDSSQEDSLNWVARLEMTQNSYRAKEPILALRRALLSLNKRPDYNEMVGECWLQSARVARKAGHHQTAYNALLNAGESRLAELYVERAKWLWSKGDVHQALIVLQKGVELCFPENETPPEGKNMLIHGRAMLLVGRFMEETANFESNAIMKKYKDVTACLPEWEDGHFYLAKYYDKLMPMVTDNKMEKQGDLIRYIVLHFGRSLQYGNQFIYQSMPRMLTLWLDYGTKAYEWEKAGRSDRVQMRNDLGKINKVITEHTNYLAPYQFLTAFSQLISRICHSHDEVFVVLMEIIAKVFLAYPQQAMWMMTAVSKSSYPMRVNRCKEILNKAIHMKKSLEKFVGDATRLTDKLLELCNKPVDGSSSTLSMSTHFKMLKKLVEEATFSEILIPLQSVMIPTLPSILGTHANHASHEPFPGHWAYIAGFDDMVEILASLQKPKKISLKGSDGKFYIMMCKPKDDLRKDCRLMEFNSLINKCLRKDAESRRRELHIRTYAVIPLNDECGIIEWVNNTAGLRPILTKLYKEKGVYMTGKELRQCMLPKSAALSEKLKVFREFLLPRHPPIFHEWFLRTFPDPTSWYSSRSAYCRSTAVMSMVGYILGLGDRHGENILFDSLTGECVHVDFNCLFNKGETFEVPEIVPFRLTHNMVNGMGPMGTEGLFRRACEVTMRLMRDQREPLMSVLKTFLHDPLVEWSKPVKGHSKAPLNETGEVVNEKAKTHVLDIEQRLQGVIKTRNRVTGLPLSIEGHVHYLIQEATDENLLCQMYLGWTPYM
Chain of ATR/ATRIP complex (Q8WXE1 whole entry partner): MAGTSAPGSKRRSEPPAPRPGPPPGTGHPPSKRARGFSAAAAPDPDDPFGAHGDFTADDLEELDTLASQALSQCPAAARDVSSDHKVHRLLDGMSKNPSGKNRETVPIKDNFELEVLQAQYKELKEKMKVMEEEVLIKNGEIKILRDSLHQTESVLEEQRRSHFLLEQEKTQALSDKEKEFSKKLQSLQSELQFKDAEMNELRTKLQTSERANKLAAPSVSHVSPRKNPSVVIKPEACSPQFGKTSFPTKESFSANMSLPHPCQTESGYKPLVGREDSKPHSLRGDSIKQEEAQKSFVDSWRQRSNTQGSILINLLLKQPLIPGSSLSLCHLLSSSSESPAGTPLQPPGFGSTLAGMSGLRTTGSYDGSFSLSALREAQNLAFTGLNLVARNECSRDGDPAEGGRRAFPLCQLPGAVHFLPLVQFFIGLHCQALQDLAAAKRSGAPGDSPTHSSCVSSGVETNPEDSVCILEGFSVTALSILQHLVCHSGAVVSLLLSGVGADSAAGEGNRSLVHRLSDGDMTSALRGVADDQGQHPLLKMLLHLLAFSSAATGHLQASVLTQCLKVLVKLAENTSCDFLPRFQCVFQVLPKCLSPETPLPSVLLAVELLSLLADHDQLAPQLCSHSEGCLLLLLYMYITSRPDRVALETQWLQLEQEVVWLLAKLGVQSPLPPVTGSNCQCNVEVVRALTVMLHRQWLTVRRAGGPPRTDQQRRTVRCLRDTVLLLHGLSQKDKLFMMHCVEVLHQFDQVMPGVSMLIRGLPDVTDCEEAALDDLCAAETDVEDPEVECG

Question: Which results are given for C[C@@H]1Cc2ncnc(C3CCN(S(C)(=O)=O)CC3)c2CN1c1cc(OC2CC2)nc2[nH]ccc12 [Example 97, (R)-6-(6-cyclopropoxy-1H-pyrrolo[2,3-b]pyridin-4-yl)-7-methyl-4-(1-(methylsulfonyl)piperidin-4-yl)-5,6,7,8-tetrahydro-pyrido[4,3-d]pyrimidine]?
Answer: IC50 [1, 3]: 13 nM; IC50 [2]: 93 nM

Question: What does the source list for C[C@@H]1Cc2ncnc(C3CCN(S(C)(=O)=O)CC3)c2CN1c1cc(C#N)nc2[nH]ccc12 [Example 98, (R)-4-(7-methyl-4-(1-(methylsulfonyl)piperidin-4-yl)-7,8-dihydro-pyrido[4,3-d]pyrimidin-6(5H)-yl)-1H-pyrrolo-[2,3-b]pyridine-6-carbonitrile]?
Answer: IC50 [1, 3]: 265 nM; IC50 [2]: 336 nM

Question: What does the source list for C[C@@H]1Cc2ncnc(C3CCN(S(C)(=O)=O)CC3)c2CN1c1cc(OC2CCC2)nc2[nH]ccc12 [Example 99, (R)-6-(6-cyclobutoxy-1H-pyrrolo[2,3-b]pyridin-4-yl)-7-methyl-4-(1-(methylsulfonyl)piperidin-4-yl)-5,6,7,8-tetrahydro-pyrido[4,3-d]pyrimidine]?
Answer: IC50 [1, 3]: 9 nM; IC50 [2]: 75 nM

Question: Which IC50 ([1]; HT-29 cells) does the source give for “N-((1R,5S,8R)-3-((R)-7- methyl-6-(1H-pyrrolo- [2,3-b]pyridin-4-yl)- 5,6,7,8-tetrahydropyrido- [4,3-d]pyrimidin-4-yl)-3- azabicyclo[3.2.1]octan-8- yl)methanesulfonamide [Example 74]” here?
Answer: 31 nM

Question: And the IC50 [2]?
Answer: 279 nM
